Test systems include BT-549 breast; DU-145 prostate; HS 578T breast; MDA-MB-231 breast; NCI/ADR-RES ovarian; T-47D breast.
Holding throughout (assay): DTP human tumour cell line panel, 48 h

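Cultured in 96-well plates, cells were exposed to test compound for 48 hours across five concentrations. Abbreviation: GI50, concentration required for 50% inhibition of growth. The concentration for full growth arrest is given as TGI.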

As to `Cc1cc(O)cc(C)c1/C=C/c1cncc(C(=O)N(C)C)c1`, the GI50 with BT-549 breast, with DU-145 prostate, in the test with HS 578T breast, in the test with MDA-MB-231 breast, in the test on NCI/ADR-RES ovarian and in the test with T-47D breast was greater than 25 µM throughout. For the same compound, the TGI with BT-549 breast, in the test on DU-145 prostate, in the test on HS 578T breast, with MDA-MB-231 breast, in the test with NCI/ADR-RES ovarian and with T-47D breast was greater than 25 µM each time.
Consider `CCCCc1cc(O)ccc1O`, for which the GI50 in the test with BT-549 breast was 6.12 µM; in the test on DU-145 prostate, 80.7 µM; in the test with HS 578T breast it was 18.7 µM; with MDA-MB-231 breast, 15.1 µM; in the test on NCI/ADR-RES ovarian, 23.2 µM; with T-47D breast it was 15.9 µM. Also, the TGI with BT-549 breast is greater than 100 µM; in the test with DU-145 prostate, greater than 100 µM; with HS 578T breast it was greater than 100 µM; in the test with MDA-MB-231 breast, greater than 100 µM; with NCI/ADR-RES ovarian, greater than 100 µM; in the test with T-47D breast it was 67.5 µM.
For `O=[N+]([O-])/C=C\c1ccc2c(c1)OCO2`, the GI50 in the test with BT-549 breast was 2.15 µM; in the test on DU-145 prostate, 3.07 µM; with HS 578T breast, 3.47 µM; with MDA-MB-231 breast it was 12.1 µM; with NCI/ADR-RES ovarian, 10.3 µM; in the test with T-47D breast, 5.27 µM. In addition, the TGI in the test on BT-549 breast was 4.8 µM; in the test on DU-145 prostate it was 10.2 µM; in the test with HS 578T breast, 19.9 µM; in the test on MDA-MB-231 breast it was 27.5 µM; with NCI/ADR-RES ovarian, 29.3 µM; in the test with T-47D breast it was 26.2 µM.
For the compound `ClCCn1cnc2c(SCc3ccccc3)ncnc21`, the GI50 is 0.685 µM in the test with BT-549 breast; 3.82 µM in the test on DU-145 prostate; 15.4 µM with HS 578T breast; 30 µM in the test with MDA-MB-231 breast; 4.94 µM in the test with NCI/ADR-RES ovarian; 11.7 µM with T-47D breast. Also, the TGI in the test with BT-549 breast, in the test with DU-145 prostate, in the test with HS 578T breast, in the test with MDA-MB-231 breast, in the test on NCI/ADR-RES ovarian and in the test with T-47D breast was greater than 100 µM each time.
As to `O=C(O)C(Cc1ccc(O)c([N+](=O)[O-])c1)N1C(=O)c2ccccc2C1=O` (stereo not drawn), the TGI in the test with BT-549 breast, with DU-145 prostate, in the test with HS 578T breast, in the test with MDA-MB-231 breast, with NCI/ADR-RES ovarian and in the test with T-47D breast was greater than 100 µM throughout.
In the case of `CN(C)CN1C(=O)S/C(=C2\C(=O)N(CN(C)C)c3ccccc32)C1=O`, the TGI in the test on BT-549 breast, in the test with DU-145 prostate, in the test with HS 578T breast, in the test with MDA-MB-231 breast, in the test on NCI/ADR-RES ovarian and with T-47D breast was greater than 100 µM throughout.
Regarding `O=C(O)c1nnsc1COCc1ccccc1`, the TGI in the test on BT-549 breast, in the test with DU-145 prostate, with HS 578T breast, in the test with MDA-MB-231 breast, with NCI/ADR-RES ovarian and in the test with T-47D breast was greater than 100 µM throughout.
Consider `O=C(N/N=C/c1ccc(F)cc1)c1[nH]c2ccc(I)cc2c1-c1ccccc1`, for which the GI50 in the test on BT-549 breast is 2.15 µM; with DU-145 prostate it was 0.479 µM; in the test on HS 578T breast, 0.235 µM; in the test on MDA-MB-231 breast it was 1.34 µM; in the test on NCI/ADR-RES ovarian, 0.274 µM. Further, the TGI amounted to 22.9 µM with BT-549 breast; 2.46 µM in the test on DU-145 prostate; 0.642 µM in the test on HS 578T breast; 6.82 µM in the test on MDA-MB-231 breast; 0.769 µM in the test on NCI/ADR-RES ovarian.
Regarding `NC(N)=N/N=C/c1c(-c2cc(Cl)sc2Cl)nc2n1CCS2`, the GI50 in the test with BT-549 breast was 8.51 µM; in the test with HS 578T breast it was 9.23 µM; in the test on MDA-MB-231 breast it was 7.64 µM; in the test with NCI/ADR-RES ovarian, greater than 50 µM. Further, the TGI with BT-549 breast was 17.3 µM; in the test on HS 578T breast, 21.8 µM; in the test on MDA-MB-231 breast, 15.6 µM; in the test with NCI/ADR-RES ovarian it was greater than 50 µM.
`Cc1ccc(N2C(=O)C(Cl)=C(Nc3cccc(O)c3)C2=O)cc1Cl`: the GI50 is 16.9 µM with DU-145 prostate, 17.4 µM with HS 578T breast, 21.6 µM in the test with NCI/ADR-RES ovarian and 49.6 µM with T-47D breast. Further, the TGI is 31.5 µM in the test with DU-145 prostate, 42.1 µM in the test with HS 578T breast, 54.7 µM with NCI/ADR-RES ovarian and greater than 100 µM with T-47D breast.
Consider `COc1ccc([N+](=O)[O-])c2c(NCC(O)CO)ccnc12` (stereo not drawn), for which the TGI in the test with BT-549 breast is 56 µM; with DU-145 prostate, greater than 100 µM; in the test with HS 578T breast it was greater than 100 µM; in the test with MDA-MB-231 breast it was greater than 100 µM; in the test on T-47D breast, greater than 100 µM.
Take `O=c1c(OC/C(=N/O)c2ccccc2)c(-c2ccccc2)oc2ccccc12`: the GI50 in the test with BT-549 breast was 13.2 µM; in the test on DU-145 prostate, 17.1 µM; with MDA-MB-231 breast, 9.39 µM; with NCI/ADR-RES ovarian, 14 µM; in the test with T-47D breast, 14.8 µM. Moreover, the TGI in the test on BT-549 breast is 26.8 µM; with DU-145 prostate, greater than 50 µM; in the test on MDA-MB-231 breast it was 23.6 µM; in the test on NCI/ADR-RES ovarian it was 42 µM; in the test on T-47D breast it was 38.1 µM.
With `COc1cccc2c(=O)c3c(sc12)c(NCCCN)nc1ccccc13`, the GI50 with BT-549 breast was 10.8 µM; in the test with DU-145 prostate, 1.48 µM; with MDA-MB-231 breast it was 1.29 µM. Moreover, the TGI is 26.5 µM in the test with BT-549 breast, 2.82 µM in the test on DU-145 prostate and 2.67 µM in the test with MDA-MB-231 breast.

For the origin of these results see PubChem BioAssay (NCI).
